In patent US6680367B1, “Fluorescent CRF receptor-binding peptides” (Advanced Bioconcept Company, priority 1995, dated 2004):
Peptide text beside a SMILES is read from it. GABA = NCCCC(=O)O

How the values were obtained:
Format in all cases: binding
[1] = test system: CRF1, CRF2; experiment: Displacement of 125I labeled CRF from CRF receptor subtypes, recombinant cells; details: Receptor CRF1, CRF2 (one value printed for both), displacing radiolabeled CRF
Description: (§1) Determination of IC50 for labeled peptides. […] In order to fully dissolve the peptide, the sample was reconstituted in 20 uL DMSO, vortexing well to ensure that all powder was completely dissolved, and then adding 0.48 mL of double distilled water. The stock solution was aliquoted to avoid repeated freezing and thawing of peptide. Unused aliquots were stored at −20° C. (protected from light) for maximum 24 hr.
(§2) Data for native and labeled peptides were analyzed by non-linear curve fitting. This included statistical evaluation of fit and calculation of IC50 and Ki values.

[2] = biological target: T1, CRF1 (Homo sapiens, UniProt P34998); experiment: Displacement of 125I labeled sauvagine from CRF1, recombinant cells
T1 construct: expressed in transfected cells
T1 sequence (P34998 24-415): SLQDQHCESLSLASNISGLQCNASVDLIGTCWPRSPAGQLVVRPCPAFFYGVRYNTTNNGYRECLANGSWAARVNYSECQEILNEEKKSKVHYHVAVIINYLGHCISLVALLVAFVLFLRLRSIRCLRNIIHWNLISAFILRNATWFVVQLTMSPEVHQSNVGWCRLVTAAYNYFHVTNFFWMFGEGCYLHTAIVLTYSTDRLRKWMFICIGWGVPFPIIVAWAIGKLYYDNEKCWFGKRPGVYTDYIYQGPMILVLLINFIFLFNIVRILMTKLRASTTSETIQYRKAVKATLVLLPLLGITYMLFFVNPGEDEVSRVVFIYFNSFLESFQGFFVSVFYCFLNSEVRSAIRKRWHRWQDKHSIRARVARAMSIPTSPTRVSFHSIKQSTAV
Description: as §1, §2

[3] = biological target: T2, CRF2 (Homo sapiens, UniProt Q13324); experiment: Displacement of 125I labeled sauvagine from CRF2, recombinant cells
T2 construct: expressed in transfected cells
T2 sequence (Q13324 1-411): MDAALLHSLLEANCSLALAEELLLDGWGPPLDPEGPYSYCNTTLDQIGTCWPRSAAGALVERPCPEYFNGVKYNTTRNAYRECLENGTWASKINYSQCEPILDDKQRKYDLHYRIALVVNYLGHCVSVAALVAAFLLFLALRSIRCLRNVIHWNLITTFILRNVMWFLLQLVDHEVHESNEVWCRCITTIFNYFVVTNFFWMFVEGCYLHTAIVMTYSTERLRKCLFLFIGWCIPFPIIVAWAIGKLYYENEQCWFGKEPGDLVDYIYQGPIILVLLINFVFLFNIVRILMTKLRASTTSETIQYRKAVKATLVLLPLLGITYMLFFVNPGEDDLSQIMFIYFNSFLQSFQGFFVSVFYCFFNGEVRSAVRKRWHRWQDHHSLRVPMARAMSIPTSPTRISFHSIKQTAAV
Description: as §1, §2

| Molecule | Ki [1] [nM] | Ki [2] [nM] | Ki [3] [nM] |
| --- | --- | --- | --- |
| CC[C@H](C)[C@H](NC(=O)[C@@H](NC(=O)[C@H](CC(=O)O)NC(=O)[C@H](CC(C)C)NC(=O)[C@H](CC(C)C)NC(=O)[C@H](CC(C)C)NC(=O)[C@H](CCCNC(=N)N)NC(=O)[C@H](CC(N)=O)NC(=O)[C@H](CC(N)=O)NC(=O)[C@H](C)NC(=O)[C@H](C)NC(=O)[C@H](CCC(N)=O)NC(=O)[C@H](CCC(N)=O)NC(=O)[C@H](CCCCN)NC(=O)[C@H](CCC(=O)O)NC(=O)[C@H](CCCCN)NC(=O)[C@H](CCC(=O)O)NC(=O)[C@H](CCC(N)=O)NC(=O)[C@H](CCCCN)NC(=O)[C@H](CCC(=O)O)NC(=O)[C@@H](NC(=O)[C@H](CCC(=O)O)NC(=O)[C@@H](NC(=O)[C@H](CCSC)NC(=O)[C@H](CCCCN)NC(=O)[C@H](CCCNC(=N)N)NC(=O)[C@H](CC(C)C)NC(=O)[C@H](CC(C)C)NC(=O)[C@H](CCC(=O)O)NC(=O)[C@H](CC(C)C)NC(=O)[C@H](CO)NC(=O)[C@H](CC(C)C)NC(=O)[C@H](CC(=O)O)NC(=O)[C@@H](NC(=O)[C@H](CO)NC(=O)[C@@H](NC(=O)[C@@H]1CCCN1C(=O)[C@@H]1CCCN1C(=O)CNC(=O)[C@@H]1CCC(=O)N1)[C@@H](C)CC)[C@@H](C)CC)[C@@H](C)CC)[C@@H](C)CC)[C@@H](C)O)C(N)=O [Sauvagine, sauvagine] | 7.9 | – | – |
| CC[C@H](C)[C@H](NC(=O)[C@H](CO)NC(=O)[C@H](CC(C)C)NC(=O)[C@H](CO)NC(=O)[C@@H]1CCCN1C(=O)[C@H](CC(N)=O)NC(=O)[C@@H](N)CC(=O)O)C(=O)N[C@@H](CC(=O)O)C(=O)N[C@@H](CC(C)C)C(=O)N[C@H](C(=O)N[C@@H](Cc1ccccc1)C(=O)N[C@@H](Cc1cnc[nH]1)C(=O)N[C@@H](CC(C)C)C(=O)N[C@@H](CC(C)C)C(=O)N[C@@H](CCCNC(=N)N)C(=O)N[C@H](C(=O)N[C@@H](CC(C)C)C(=O)N[C@@H](CC(C)C)C(=O)N[C@@H](CCC(=O)O)C(=O)N[C@@H](CC(C)C)C(=O)N[C@@H](C)C(=O)N[C@@H](CCCNC(=N)N)C(=O)N[C@H](C(=O)N[C@@H](CCC(N)=O)C(=O)N[C@@H](CO)C(=O)N[C@@H](CCC(N)=O)C(=O)N[C@@H](CCCNC(=N)N)C(=O)N[C@@H](CCC(=O)O)C(=O)N[C@@H](CCCNC(=N)N)C(=O)N[C@@H](C)C(=O)N[C@@H](CCC(=O)O)C(=O)N[C@@H](CCC(N)=O)C(=O)N[C@@H](CC(N)=O)C(=O)N[C@@H](CCCNC(=N)N)C(=O)N[C@H](C(=O)N[C@H](C(=O)N[C@@H](Cc1ccccc1)C(=O)N[C@@H](CC(=O)O)C(=O)N[C@@H](CO)C(=O)N[C@H](C(N)=O)C(C)C)[C@@H](C)CC)[C@@H](C)CC)[C@@H](C)O)[C@@H](C)O)[C@@H](C)O [urocortin] (H-DNPSLSIDLTFHLLRTLLELARTQSQRERAEQNRIIFDSV-NH2) | – | 0.64 | 4.3 |
| fluoresceinyl-sauvagine ({Fluorescein-GABA}-GPPISIDLSLELLRKMIEIEKQEKEKQQAANNRLLLDTI-NH2; listed as Xenopus tropicalis) [Fluo*-sauvagine] | 3.8 | – | – |
